Legend:
Test in all cases: Test E pre-/postemergence herbicide test
hairy beggarticks = type: in vivo, Bidens radiata; details: Preemergence
Description: Seeds of plant species selected from bipinnate beggarticks (Bidens bipinnata L.), hairy beggarticks (Bidens radiata Thuill.), bermudagrass (Cynodon dactylon (L.) Pers.), Surinam grass (Urochloa decumbens (Staph) R. D. Webster, previously named Brachiaria decumbens Stapf), large crabgrass (Digitaria sanguinalis (L.) Scop.), green foxtail (Setaria viridis (L.) P. Beauv.), goosegrass (Eleusine indica (L.) Gaertn.), johnsongrass (Sorghum halepense (L.) Pers.), kochia (Kochia scoparia (L.) Schrad.), pitted morningglory (Ipomoea lacunosa L.), purple nutsedge (Cyperus rotundus L.), common ragweed (Ambrosia elatior L.), mustard (Brassica nigra (L.) W. D. J. Koch), guineagrass (Panicum maximum Jacq.), dallisgrass (Paspalum dilatatum Poir.), barnyardgrass (Echinochloa crus-galli (L). P. Beauv.), southern sandbur (Cenchrus echinatus L.), common sowthistle (Sonchus oleraceous L.), prickly sida (Sida spinosa L.), Italian ryegrass (Lolium multiflorum Lam.), common purslane (Portulaca oleracea L.), broadleaf signalgrass (Brachiaria platyphylla (Griseb.) Nash), common groundsel (Senecio vulgaris L.), common chickweed (Stellaria media (L.) Vill/Cyr.), tropical spiderwort (Commelina benghalensis L.), annual bluegrass (Poa annua L.), downy bromegrass (Bromus tectorum L.), itchgrass (Rottboellia cochinchinensis (L.) L.f.), quackgrass (Elytrigia repens (L.) Nevski), Canada horseweed (Erigeron Canadensis L.), field bindweed (Convolvulus arvensis L.), spotted spurge (Euphorbia maculata L.), common mallow (Malva sylvestris (=s silvestris) L.), and Russian thistle (Salsola kali L. ssp. Ruthenica (Iljin) Soo) were planted and treated preemergence with test chemicals formulated in a non-phytotoxic solvent mixture which included a surfactant.
At the same time, plants selected from these weed species were treated with postemergence applications of some of the test chemicals formulated in the same manner. Plants ranged in height from 2 to 18 cm (1- to 4-leaf stage) for postemergence treatments. Treated plants and controls were maintained in a greenhouse for 12 to 14 days, after which time all species were compared to controls and visually evaluated. Plant response ratings, summarized in Table E, are based on a scale of 0 to 100 where 0 is no effect and 100 is complete control. A dash (-) response means no test result.

Surinam grass = type: in vivo, Urochloa decumbens; details: Preemergence
In short: (§1)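 Ratings from 0 (no effect) to 100 (complete control) were assigned by visual comparison with untreated plants 12 to 14 days after application. Test chemicals, formulated with surfactant in a non-phytotoxic solvent blend, were applied to soil after planting or to foliage of 2–18 cm plants.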

large crabgrass = type: in vivo, Digitaria sanguinalis; details: Preemergence
In short: as §1

common ragweed = type: in vivo, Ambrosia elatior; details: Preemergence
In short: as §1

guineagrass = type: in vivo, Panicum maximum; details: Preemergence
In short: as §1

broadleaf signalgrass = type: in vivo, Brachiaria platyphylla; details: Preemergence
In short: as §1

downy bromegrass = type: in vivo, Bromus tectorum; details: Preemergence, scale 0 (no effect) to 100 (complete control)
In short: as §1

itchgrass = type: in vivo, Rottboellia cochinchinensis; details: Preemergence
In short: as §1

[1] = 250 g ai/ha, scale 0 (no effect) to 100 (complete control)
[2] = 375 g ai/ha, scale 0 (no effect) to 100 (complete control)
[3] = 500 g ai/ha, scale 0 (no effect) to 100 (complete control)

Structure (SMILES): CCc1nn(C(C)(C)C)cc1C(=O)Nc1cc(C(=O)N(C)C)ccn1 [Compound 293]
- Plant response rating, Beggarticks, Hairy (hairy beggarticks; 125 g ai/ha, scale 0 to 100): 100
- Plant response rating, Beggarticks, Hairy (hairy beggarticks; [1]): 100
- Plant response rating, Beggarticks, Hairy (hairy beggarticks; [2]): 100
- Plant response rating, Beggarticks, Hairy (hairy beggarticks; [3]): 100
- Plant response rating, Surinam Grass (Surinam grass; 125 g ai/ha, scale 0 to 100): 80
- Plant response rating, Surinam Grass (Surinam grass; [2]): 100
- Plant response rating, Surinam Grass (Surinam grass; [3]): 100
- Plant response rating, Crabgrass, Large (large crabgrass; 125 g ai/ha, scale 0 to 100): 95
- Plant response rating, Crabgrass, Large (large crabgrass; [1]): 95
- Plant response rating, Crabgrass, Large (large crabgrass; [2]): 100
- Plant response rating, Crabgrass, Large (large crabgrass; [3]): 100
- Plant response rating, Ragweed (common ragweed; 125 g ai/ha, scale 0 to 100): 50
- Plant response rating, Ragweed (common ragweed; [1]): 70
- Plant response rating, Ragweed (common ragweed; [2]): 100
- Plant response rating, Ragweed (common ragweed; [3]): 100
- Plant response rating, Guineagrass (guineagrass; 125 g ai/ha, scale 0 to 100): 100
- Plant response rating, Guineagrass (guineagrass; [1]): 100
- Plant response rating, Guineagrass (guineagrass; [2]): 100
- Plant response rating, Guineagrass (guineagrass; [3]): 100
- Plant response rating, Signalgrass (broadleaf signalgrass; 125 g ai/ha, scale 0 to 100): 50
- Plant response rating, Signalgrass (broadleaf signalgrass; [1]): 95
- Plant response rating, Signalgrass (broadleaf signalgrass; [2]): 95
- Plant response rating, Signalgrass (broadleaf signalgrass; [3]): 100
- Plant response rating, Bromegrass, Downy (downy bromegrass; 250 g ai/ha): 80
- Plant response rating, Bromegrass, Downy (downy bromegrass; 500 g ai/ha): 80
- Plant response rating, Itchgrass (itchgrass; 125 g ai/ha, scale 0 to 100): 10
- Plant response rating, Itchgrass (itchgrass; [1]): 90
- Plant response rating, Itchgrass (itchgrass; [2]): 100
- Plant response rating, Itchgrass (itchgrass; [3]): 100

— US20060069132A1, “Azolecarboxamide herbicides” (priority 2004, published 2006)
